The text below walks through data of PubChem BioAssay (NCI).

The structures appear in SMILES notation. Converted amounts (≈) assume the structure as drawn. “And” between values parts separate entries of the source, which are not always exact repeats. Equal entries are not always repeated.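 These data come from cells grown in 96-well plates and exposed to compound for 48 hours at five concentrations. Abbreviation: GI50, concentration required for 50% inhibition of growth. Definition used: TGI = concentration required for complete inhibition of growth.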 The source made the active and inactive calls. Cut-off read from the data, not from the text of the source: active = GI50 below about 0.43 µM; inactive = the rest. Where only a bound is given, the exact number is not on record here.

Test systems include DLD-1 colon; DMS 114 small cell lung; HOP-18 NSCLC; LXFL 529 NSCLC; M19-MEL melanoma; SNB-78 CNS; XF 498 CNS; DMS 273 small cell lung; MDA-N; RXF-631 renal.
Common to all, as to assay: growth of human tumour cells (NCI), 48 h

Take `NC1=NN(c2ccccc2)C(=O)C1/C(=N\NC(=O)c1cc2ccccc2cc1O)C(=O)Nc1cccc(C(F)(F)F)c1` (stereo not drawn): the TGI was greater than 100 µM with DLD-1 colon; 83 µM with DMS 114 small cell lung; greater than 100 µM with HOP-18 NSCLC; greater than 100 µM in the experiment on LXFL 529 NSCLC; greater than 100 µM in the experiment with M19-MEL melanoma; greater than 100 µM in the experiment with SNB-78 CNS. This compound came in with a TGI in the experiment on XF 498 CNS greater than 100 µM.

Regarding `CC(=O)[CH-]C(=O)c1ccccc1.CC(=O)[CH-]C(=O)c1ccccc1.CC[C@H](/C=C/C(C)[C@H]1CCC2[C@@H]3CC=C4C[C@@H]([O-])CC[C@]4(C)C3CC[C@@]21C)C(C)C.CC[O-].[Ti+4]` (stereo partly drawn), the GI50 in the experiment with DLD-1 colon, with DMS 273 small cell lung, with LXFL 529 NSCLC and in the experiment on M19-MEL melanoma was greater than 100 µM throughout. Moreover, the TGI in the experiment on DLD-1 colon, in the experiment on DMS 273 small cell lung, with LXFL 529 NSCLC and in the experiment with M19-MEL melanoma was greater than 100 µM in each case.

As to `CC(=O)[CH-]C(=O)c1ccccc1.CC(=O)[CH-]C(=O)c1ccccc1.CC1(C)OCC(C2OC3OC(C)(C)OC3C2[O-])O1.CC1(C)OCC(C2OC3OC(C)(C)OC3C2[O-])O1.[Ti+4]` (stereo not drawn), the GI50 was 18.5 µM in the experiment on DLD-1 colon, 11.5 µM in the experiment with LXFL 529 NSCLC and 4.91 µM in the experiment on M19-MEL melanoma. For the same compound, the TGI in the experiment with DLD-1 colon was 52.5 µM; with LXFL 529 NSCLC it was 24 µM; in the experiment with M19-MEL melanoma, greater than 100 µM.

Regarding `CSCC[C@H](NC(=O)[C@H](CC(C)C)NC(=O)[C@@H](Cc1ccccc1)NC(=O)CNC(=O)[C@@H](NC(=O)[C@H](C)NC(=O)[C@H](Cc1c[nH]c2ccccc12)NC(=O)[C@H](CCC(N)=O)NC(=O)[C@H](N)CC(N)=O)C(C)C)C(N)=O`, the TGI with MDA-N was greater than 12.5 µM.

As to `COc1cccc(NC(=O)C(C)(C)C)c1SSc1c(NC(=O)C(C)(C)C)cccc1OC`, the TGI is greater than 61.8 µM in the experiment with DLD-1 colon; greater than 100 µM with DMS 273 small cell lung; greater than 100 µM in the experiment on HOP-18 NSCLC; 29.9 µM with LXFL 529 NSCLC; greater than 100 µM with M19-MEL melanoma; 51.2 µM with SNB-78 CNS. The compound also came in with a TGI in the experiment on XF 498 CNS of 35.7 µM.

As for `O=S1(=O)NC2CCC3NS(=O)(=O)NC4CCC(N1)N4S(=O)(=O)N23` (stereo not drawn), in the experiment with MDA-N, the TGI was greater than 100 µM.

As to `Cn1c2ccccc2c(=O)c2c(O)cc3c(c21)CC(C1(C)CO1)O3` (stereo not drawn), the TGI in the experiment with DLD-1 colon is 26.1 µM; in the experiment on DMS 114 small cell lung, 5.11 µM; in the experiment with DMS 273 small cell lung, 49.2 µM; with HOP-18 NSCLC, greater than 93.2 µM; in the experiment with LXFL 529 NSCLC it was 1.5 µM; with MDA-N it was 2.73 µM. In addition, the TGI in the experiment with RXF-631 renal was greater than 33.6 µM; in the experiment with XF 498 CNS it was 4.73 µM.

On to `COC(=O)C(CC(C)=O)CS(=O)(=O)CC(=O)C(=O)Nc1cccc([N+](=O)[O-])c1` (stereo not drawn), for which the TGI in the experiment on DLD-1 colon, with DMS 114 small cell lung, in the experiment with DMS 273 small cell lung, in the experiment with HOP-18 NSCLC, in the experiment on LXFL 529 NSCLC and in the experiment with M19-MEL melanoma was greater than 100 µM in each case. Also, the TGI in the experiment on RXF-631 renal, with SNB-78 CNS and in the experiment with XF 498 CNS was greater than 100 µM each time.

For the compound `Cc1cc(=O)n2c3c(c4c(cc13)c(CO)cc(=O)n4C)OC2`, the TGI in the experiment with DLD-1 colon is greater than 100 µM; in the experiment on DMS 114 small cell lung it was 47.5 µM; in the experiment with DMS 273 small cell lung, greater than 100 µM; in the experiment with HOP-18 NSCLC, 62.6 µM; in the experiment on LXFL 529 NSCLC, 34 µM; in the experiment with M19-MEL melanoma, 46.4 µM. In addition, the TGI is 38.9 µM in the experiment on RXF-631 renal, greater than 100 µM in the experiment with SNB-78 CNS and 32.4 µM in the experiment with XF 498 CNS.

In turn, `c1cc(CSSCc2ccncc2)ccn1` came in with a TGI in the experiment with MDA-N of 62.9 µM.

Turning to `COC(C(=O)C(O)C(C)O)C1Cc2cc3cc(OC4CC(OC5CC(O)C(O)C(C)O5)C(O)C(C)O4)c(C)c(O)c3c(O)c2C(=O)C1OC1CC(OC2CC(O)C(OC3CC(C)(O)C(O)C(C)O3)C(C)O2)C(O)C(C)O1` (stereo not drawn), the GI50 with DLD-1 colon is 0.0828 ng/mL; with DMS 114 small cell lung it was 0.0556 ng/mL (≈ 0.0512 nM); in the experiment on DMS 273 small cell lung, 0.0407 ng/mL; with M19-MEL melanoma, 0.0253 ng/mL; in the experiment on MDA-N it was 13.9 ng/mL and 25.8 ng/mL; with SNB-78 CNS, 0.0424 ng/mL (≈ 0.039 nM). In addition, the TGI in the experiment with DLD-1 colon was 150 ng/mL; with DMS 114 small cell lung, 0.479 ng/mL; with DMS 273 small cell lung, 2.4 ng/mL; in the experiment on M19-MEL melanoma, 0.31 ng/mL; in the experiment on MDA-N it was 128 ng/mL and 328 ng/mL; in the experiment with SNB-78 CNS it was 21.4 ng/mL. The result in the experiment on HOP-18 NSCLC and in the experiment on XF 498 CNS was inactive.

As for `Cc1ccc(NC(=O)CC/C(CC(=O)C(C)(C)C)=N/NC(=O)C[N+](C)(C)C)cc1C`, the TGI with DLD-1 colon, in the experiment on DMS 114 small cell lung, with HOP-18 NSCLC, in the experiment on LXFL 529 NSCLC, in the experiment on M19-MEL melanoma and in the experiment with SNB-78 CNS was greater than 100 µM each time.

As to `N#CC1(Nc2ccc(-c3ccc(NC4(C#N)CCCC4)cc3)cc2)CCCC1`, the TGI in the experiment on MDA-N was greater than 100 µM.

As to `CSc1ccc(OCC2OC2O)cc1` (stereo not drawn), the TGI is greater than 100 µM in the experiment with DLD-1 colon; 86.3 µM with DMS 114 small cell lung; greater than 100 µM in the experiment with DMS 273 small cell lung; greater than 100 µM in the experiment with HOP-18 NSCLC; greater than 100 µM with LXFL 529 NSCLC; greater than 100 µM with M19-MEL melanoma. Also, the TGI in the experiment with SNB-78 CNS is greater than 100 µM; in the experiment on XF 498 CNS, 78.7 µM.

Take `O=C(N/C(=C\c1ccc(/C=C(\NC(=O)c2ccccc2)c2nc3cc(Cl)ccc3[nH]2)cc1)c1nc2cc(Cl)ccc2[nH]1)c1ccccc1`: the TGI was greater than 100 µM with DLD-1 colon; greater than 100 µM with DMS 114 small cell lung; 50.4 µM in the experiment on DMS 273 small cell lung; greater than 100 µM in the experiment with HOP-18 NSCLC; greater than 100 µM with LXFL 529 NSCLC; greater than 100 µM in the experiment on M19-MEL melanoma. For the same compound, the TGI in the experiment with SNB-78 CNS and with XF 498 CNS was greater than 100 µM each time.

Consider `Cn1c(=O)c2ccc(-c3ccc(Br)cc3)nc2n(C)c1=O`, for which the TGI in the experiment on DLD-1 colon, in the experiment with DMS 114 small cell lung, in the experiment on DMS 273 small cell lung, in the experiment with HOP-18 NSCLC, with LXFL 529 NSCLC and in the experiment on M19-MEL melanoma was greater than 100 µM throughout. Besides, the TGI with RXF-631 renal, with SNB-78 CNS and in the experiment with XF 498 CNS was greater than 100 µM throughout.
